{
  "source": "patent US20060166867A1",
  "about": "“Novel conjugates of polysaccharides and uses thereof” (priority 2003, published 2006)",
  "key": {"[1]": {"system": "Enterococcus faecalis-vancomycin^r", "details": "clinical isolate, Table 7"}, "HIV-1 IIIB": {"system": "HIV-1 IIIB", "test": "microbe, parasite or virus in culture", "assay_type": "cell-based", "details": "Table 4; read-out: EC50 IIIB", "experimental": "(§1) Inhibition of HIV-1 cell replication was tested using the cMAGI assay, which is based on the ability of HIV-1 TAT to transactivate the expression of an integrated β-galactosidase reporter gene driven by the HIV-LTR (B. Chackeria et al., J. Virol., (1997) 71, 3932; Collins et al., Nat. Med. (2000) 6, 475). The β-galactosidase reporter is modified to remain localized in the nucleus where it can be detected with the X-gal (5-bromo-4-chloro-3indoyl-β-D-galactopyranoside) substrate as an intense nuclear stain within a few days of infection.\n(§2) HIV-1 isolates were propagated by subculture in MT2 cells (Litovchick et al. (2001) supra). Aliquots of cell-free culture supernatants were used as viral inoculum. PAACs were dissolved in the RPMI 1640 medium. Cytotoxicity determinations were carried out in MT2 cells by trypan blue exclusion assay. Viral inhibition was determined by incubating MT2 or cMAGI HIV-1 reporter cells with 0.2-0.5 multiplicity of infection of HIV-1 wild type or resistant virus for 4 days at 37° C. in the presence or absence of various concentrations of pAACs. HIV-1 infection of cMAGI cells was determined by counting the number of HIV-1-infected cells (stained blue). The cytopathic effects of the viral infection of MT2 cells were also analyzed by microscopic assessment of syncytium formation."}, "E. Coli-ESBL negative": {"system": "E. Coli-ESBL negative", "details": "Gram negative clinical isolate"}, "[2]": {"system": "A. baumannii-amikacin^r, meropenem^r", "details": "Gram negative clinical isolate"}, "in vitro": {"test": "in vitro", "assay_type": "cell-based", "details": "human; Table 4; tryphan blue exclusion assay for MT2 cells; read-out: Cytotoxicity", "experimental": "Cytotoxicity of the various pAACs was determined using the trypan blue exclusion assay. In brief, a sample of the cell suspension was diluted 1:1 (v/v) with 0.4% trypan blue and the cells were counted using a hemocytometer. Results are expressed as the percentage of dead cells.\nas §2"}, "S. aureus MSSA": {"system": "S. aureus MSSA", "details": "Gram positive clinical isolate"}, "E. Coli B3095141^r": {"system": "E. Coli B3095141^r", "details": "clinical isolate, Table 7"}, "Enterobacter cloacae": {"system": "Enterobacter cloacae", "details": "Gram negative clinical isolate"}, "A. baumannii R16998": {"system": "A. baumannii R16998", "details": "Gram negative clinical isolate"}, "[3]": {"system": "Klebsiella pneumoniae ATCC 13883", "details": "Gram negative reference strain"}, "[4]": {"system": "Enterobacter cloacae W25161", "details": "Gram negative clinical isolate"}, "[5]": {"system": "Escherichia coli ATCC 25922", "details": "Gram negative reference strain"}, "Enterobacter aerogenes": {"system": "Enterobacter aerogenes", "details": "Gram negative clinical isolate"}, "S. aureus MRSA": {"system": "S. aureus MRSA", "details": "Gram positive clinical isolate"}, "[6]": {"system": "Staphylococcus aureus ATCC 24213", "details": "Gram positive reference strain"}, "[7]": {"system": "P. aeruginosa-gentamicin^s, meropenem^s", "details": "Gram negative clinical isolate"}, "S. epidermidis MRSE": {"system": "S. epidermidis MRSE", "details": "Gram positive clinical isolate"}, "[8]": {"system": "Acinetobacter baumannii ATCC 19606", "details": "Gram negative reference strain"}, "[9]": {"system": "A. baumannii-amikacin^s, meropenem^s", "details": "Gram negative clinical isolate"}, "[10]": {"system": "Proteus mirabilis ATCC 7002", "details": "Gram negative reference strain"}, "[11]": {"system": "K. pneumoniae-ESBL positive", "details": "Gram negative clinical isolate"}, "[12]": {"system": "HIV-1 clinical isolate Clade A", "assay_type": "cell-based", "details": "Table 4; read-out: EC50 Clade A", "experimental": "as §1, §2"}, "[13]": {"system": "HIV-1 Protease resistant virus", "assay_type": "cell-based", "details": "Table 4; read-out: EC50 Protease^Res", "experimental": "as §1, §2"}, "[14]": {"system": "HIV-1 NeoR6 resistant virus", "assay_type": "cell-based", "details": "read-out: EC50 NeoR6^Res; Table 4", "experimental": "as §1, §2"}, "HIV-1 Ba-L": {"system": "HIV-1 Ba-L", "assay_type": "cell-based", "details": "Table 4", "experimental": "as §1, §2"}, "[15]": {"system": "HIV-1 AZT resistant virus", "assay_type": "cell-based", "details": "Table 4; read-out: EC50 AZT^Res", "experimental": "as §1, §2"}, "[16]": {"system": "HIV-1 clinical isolate Clade C", "assay_type": "cell-based", "details": "Table 4; read-out: EC50 Clade C", "experimental": "as §1, §2"}, "E. Coli-ESBL positive": {"system": "E. Coli-ESBL positive", "details": "Gram negative clinical isolate"}, "[17]": {"system": "Pseudomonas aeruginosa ATCC 27853", "details": "Gram negative reference strain"}, "[18]": {"system": "K. pneumoniae-ESBL negative", "details": "Gram negative clinical isolate"}, "S. epidermidis MSSE": {"system": "S. epidermidis MSSE", "details": "Gram positive clinical isolate"}, "CXCR4": {"target": "T1, CXCR4 (Homo sapiens, UniProt P61073)", "T1 construct": "incubated at 4° C. with anti-CXCR4 mAb, 12G5, conjugated to phycoerithrine (PE); endogenous in cells; host or cells: MT2 cells", "T1 sequence (P61073 whole entry)": "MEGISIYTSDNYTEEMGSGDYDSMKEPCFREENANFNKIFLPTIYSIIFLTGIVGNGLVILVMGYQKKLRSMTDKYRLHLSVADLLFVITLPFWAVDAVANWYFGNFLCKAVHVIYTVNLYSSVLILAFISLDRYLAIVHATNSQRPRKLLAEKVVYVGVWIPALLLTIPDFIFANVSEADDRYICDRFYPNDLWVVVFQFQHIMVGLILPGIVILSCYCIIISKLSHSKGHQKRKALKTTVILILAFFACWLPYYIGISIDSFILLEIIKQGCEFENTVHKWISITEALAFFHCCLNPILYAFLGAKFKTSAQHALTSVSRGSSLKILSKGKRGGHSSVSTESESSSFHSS", "test": "Competition with 12G5 mAb binding to CXCR4 on MT2 cells (flow cytometry)", "experimental": "Interaction of pAACs and arginine peptides with CXCR4 coreceptor: Interactions of pAACs and arginine-peptides with CXCR4 were determined by flow cytometry (FACS-Scan, Becton Dickinson) as previously described (Litovich (2001) supra). In brief, 0.5×10^6 MT2 cells were washed with ice-cold PBS containing 0.1% sodium azide (wash buffer) and were incubated at 4° C. with anti-CXCR4 mAb, 12G5, conjugated to phycoerithrine (PE), in the absence or presence of different concentrations of pAACs and arginine peptides. After 30 minutes of incubation, the cells were washed with ice-cold wash buffer and fixed in PBS containing 1% paraformaldehyde. Non-specific fluorescence was assessed using an isotype control. For each sample 10,000 events were acquired. Data were analyzed and processed using CellQuest™ software (Becton Dickinson)."}, "[19]": {"system": "P. aeruginosa-gentamicin^r, meropenem^r", "details": "Gram negative clinical isolate"}},
  "note": "Several values for one entry are separate records, joined by “and”; a condition that tells them apart may be missing. Equal entries are not always repeated.",
  "data": [
    {"compound": "CC(=O)N[C@H](CCCNC(=N)N)C(=O)N[C@H](CCCNC(=N)N)C(=O)N[C@H](CCCNC(=N)N)C(=O)N[C@H](CCCNC(=N)N)C(=O)N[C@H](CCCNC(=N)N)C(=O)N[C@H](CCCNC(=N)N)C(=O)N[C@H](CCCNC(=N)N)C(=O)N[C@H](CCCNC(=N)N)C(=O)N[C@H](CCCNC(=N)N)C(=O)NC[C@H]1O[C@H](O[C@H]2[C@H](O)[C@@H](O)[C@H](N)C[C@@H]2N)[C@H](N)[C@@H](O)[C@@H]1O", "note": "[Compound 13, D-Arg-9-mer-neamine]", "values": [
      {"measurement": "Minimum Inhibitory Concentration", "setting": "[1]", "value": "64.0 mg/liter and 25.70 μM"},
      {"measurement": "EC50", "setting": "HIV-1 IIIB", "value": "2300 ± 500", "unit": "nM"},
      {"measurement": "Minimum Inhibitory Concentration", "setting": "E. Coli-ESBL negative", "value": "6.0 mg/liter and 2.40 μM"},
      {"measurement": "Minimum Inhibitory Concentration", "setting": "[2]", "value": "96.0 mg/liter and 38.55 μM"},
      {"measurement": "CC50", "setting": "in vitro", "value": 150000, "unit": "nM"},
      {"measurement": "Minimum Inhibitory Concentration", "setting": "S. aureus MSSA", "value": "1.5 mg/liter and 0.60 μM"},
      {"measurement": "Minimum Inhibitory Concentration", "setting": "E. Coli B3095141^r", "value": "6.0 mg/liter and 2.40 μM"},
      {"measurement": "Minimum Inhibitory Concentration", "setting": "Enterobacter cloacae", "value": "8.0 mg/liter and 3.20 μM"},
      {"measurement": "Minimum Inhibitory Concentration", "setting": "A. baumannii R16998", "value": "128.0 mg/liter and 51.41 μM"},
      {"measurement": "Minimum Inhibitory Concentration", "setting": "[3]", "value": "1.5 mg/liter and 0.60 μM"},
      {"measurement": "Minimum Inhibitory Concentration", "setting": "[4]", "value": "24.0 mg/liter and 9.64 μM"},
      {"measurement": "Minimum Inhibitory Concentration", "setting": "[5]", "value": "6.0 mg/liter and 2.40 μM"},
      {"measurement": "Minimum Inhibitory Concentration", "setting": "Enterobacter aerogenes", "value": "16 mg/liter and 6.40 μM"},
      {"measurement": "Minimum Inhibitory Concentration", "setting": "S. aureus MRSA", "value": "1.5 mg/liter and 0.60 μM"},
      {"measurement": "Minimum Inhibitory Concentration", "setting": "[6]", "value": "2.0 mg/liter and 0.80 μM"},
      {"measurement": "Minimum Inhibitory Concentration", "setting": "[7]", "value": "48.0 mg/liter and 19.28 μM"},
      {"measurement": "Minimum Inhibitory Concentration", "setting": "S. epidermidis MRSE", "value": "0.5 mg/liter and 0.20 μM"},
      {"measurement": "Minimum Inhibitory Concentration", "setting": "[8]", "value": "16.0 mg/liter and 6.40 μM"},
      {"measurement": "Minimum Inhibitory Concentration", "setting": "[9]", "value": "12.0 mg/liter and 4.8 μM"},
      {"measurement": "Minimum Inhibitory Concentration", "setting": "[10]", "value": "8.0 mg/liter and 3.20 μM"},
      {"measurement": "Minimum Inhibitory Concentration", "setting": "[11]", "value": "3.0 mg/liter and 1.20 μM"},
      {"measurement": "EC50", "setting": "[12]", "value": "5100 ± 2900", "unit": "nM"},
      {"measurement": "EC50", "setting": "[13]", "value": "2400 ± 400", "unit": "nM"},
      {"measurement": "EC50", "setting": "[14]", "value": "3000 ± 1000", "unit": "nM"},
      {"measurement": "EC50", "setting": "HIV-1 Ba-L", "value": "> 50000", "unit": "nM"},
      {"measurement": "EC50", "setting": "[15]", "value": "10400 ± 2700", "unit": "nM"},
      {"measurement": "EC50", "setting": "[16]", "value": "2700 ± 500", "unit": "nM"},
      {"measurement": "Minimum Inhibitory Concentration", "setting": "E. Coli-ESBL positive", "value": "8.0 mg/liter and 3.20 μM"},
      {"measurement": "Minimum Inhibitory Concentration", "setting": "[17]", "value": "96.0 mg/liter and 38.55 μM"},
      {"measurement": "Minimum Inhibitory Concentration", "setting": "[18]", "value": "3.0 mg/liter and 1.20 μM"},
      {"measurement": "Minimum Inhibitory Concentration", "setting": "S. epidermidis MSSE", "value": "0.5 mg/liter and 0.20 μM"},
      {"measurement": "inhibition at 2 µM", "setting": "CXCR4; read-out: % Inhibition of 12G5 mAb binding to CXCR4, 2 μM", "value": 67.3, "unit": "%"},
      {"measurement": "inhibition at 10 µM", "setting": "CXCR4; read-out: % Inhibition of 12G5 mAb binding to CXCR4, 10 μM", "value": 100, "unit": "%"},
      {"measurement": "Minimum Inhibitory Concentration", "setting": "[19]", "value": "96.0 mg/liter and 38.55 μM"}
    ]}
  ]
}
